Test results taken from patent US10695296B2, “Formulations, methods, kit, and dosage forms for improved stability of an active pharmaceutical ingredient” (Asana BioSciences, LLC, priority 2017, dated 2020).
Several values for one entry are separate records, joined by “and”; a condition that tells them apart may be missing. Identical values can stand only once. Like-named read-outs stand apart in the source and are kept apart here.

Assay: PK characteristics in humans (plasma, LC/MS/MS)
Type: in vivo, human
Conditions: for accumulation: cancer patients; for dose dependence of Cmax and AUC: 10-400 mg QD and 400 mg BID; for half-life: read-out: T1/2 (converted)
Description: A pharmaceutical formulation of the disclosure comprising the active ingredient N-(3-(2-(6-amino-4-(trifluoromethyl)pyridin-3-yl)-4-morpholinopyrido[3,2-d]pyrimidin-6-yl)-2-fluorophenyl)-3-fluoropropane-1-sulfonamide was evaluated for safety/tolerability and preliminary efficacy in eligible human subjects with advanced solid tumors, and the pharmacokinetic (PK) profile of the active ingredient was investigated for each subject. Eligibility criteria for inclusion in this study included:
Fifteen eligible patients were enrolled in total daily dose levels ranging from 10-800 mg per day of the active ingredient, provided as 10-mg, 20-mg, 80-mg and 120-mg tablets for oral administration. Dose escalation is ongoing. All study medication supplies were provided by Asana BioSciences, LLC (Bridgewater, N.J.). The tablets were administered orally every 12-24 hours on an empty stomach (either 1 hour before or 2 hours after a meal or snack) with approximately 240 mL of water. On study days in which there was a single plasma PK sample taken, the subject was instructed to fast for at least 2 hours prior to collection of the PK sample. On study days with multiple plasma PK samples taken, the subject was instructed to fast overnight (at least 8 hours prior to study drug administration) and remain fasting for 2 hours after study drug administration. The date and time of the dose(s) taken prior to or on PK sampling days were collected by the study site or catalogued via a diary card provided to the subject.
An ultra performance liquid chromatographic method was used for the determination of the active ingredient in human EDTA K2 plasma. This method was validated over an analytical range of 0.5 to 500 ng/mL. Calibration standards (CS) and quality control (QC) samples at three or four levels of concentrations were prepared fresh from the appropriate working solutions which were stored at −20° C. The human EDTA K2 plasma used for the preparation of CS and QC samples was obtained from Bioreclamation (Westbury, Pa., USA) and analyzed to determine possible interference with the analyte or the internal standard, and no significant interference was observed. The following parameters were used to determine analyte levels in the plasma samples: […]

[1] = Day 1, 40 mg, individual subjects
[2] = Day 1, 80 mg, individual subjects
[3] = Day 1, 240 mg, individual subjects
[4] = Day 1, 400 QD mg, individual subjects
[5] = Day 1, 400 bid mg, individual subjects
[6] = Day 15, 40 mg, individual subjects
[7] = Day 15, 80 mg, individual subjects
[8] = Day 15, 240 mg, individual subjects
[9] = Day 15, 400 QD mg, individual subjects
[10] = human subjects, listed as active ingredient

SMILES: Nc1cc(C(F)(F)F)c(-c2nc(N3CCOCC3)c3nc(-c4cccc(NS(=O)(=O)CCCF)c4F)ccc3n2)cn1 [CMPD A, N-(3-(2-(6-amino-4-(trifluoromethyl)pyridin-3-yl)-4-morpholinopyrido[3,2-d]pyrimidin-6-yl)-2-fluorophenyl)-3-fluoropropane-1-sulfonamide]
- accumulation (BID administration): ~3 fold
- AUC0-24 [1]: 1400 ng·h/mL and 5510 ng·h/mL
- Cmax [1]: 96.2 ng/mL and 289 ng/mL
- T1/2 [1]: 17.6 h
- AUC0-24 [2]: 8090 ng·h/mL and 4010 ng·h/mL
- Cmax [2]: 300 ng/mL
- Tmax [2]: 24 h
- AUC0-24 [3]: 9560 ng·h/mL and 4300 ng·h/mL
- Cmax [3]: 744 ng/mL and 295 ng/mL
- T1/2 [3]: 23.9 h and 11.0 h
- AUC0-24 [4]: 3200 ng·h/mL and 26700 ng·h/mL
- Cmax [4]: 264 ng/mL and 1870 ng/mL
- T1/2 [4]: 15.6 h
- AUC0-24 [5]: 20400 ng·h/mL
- Cmax [5]: 1430 ng/mL
- T1/2 [5]: 15.0 h
- RAUCtau (Day 15, 10 mg, n=1): 1.5
- RCmax (Day 15, 10 mg, n=1): 1.3
- RAUCtau (Day 15, 20 mg, n=1): 2.1
- RCmax (Day 15, 20 mg, n=1): 1.5
- AUC0-24 [6]: 2580 ng·h/mL and 9190 ng·h/mL
- Cmax [6]: 173 ng/mL and 523 ng/mL
- RAUCtau [6]: 1.9 and 2.3
- RCmax [6]: 1.8, 1.8
- T1/2 [6]: 22.5 h and 47.8 h
- AUC0-24 [7]: 21300 ng·h/mL
- Cmax [7]: 1179 ng/mL
- RAUCtau [7]: 2.4 and 5.3
- RCmax [7]: 2.0 and 4.0
- Tmax [7]: 24 h
- RAUCtau (Day 15, 120 mg, n=3, range): 1.2-1.9
- RCmax (Day 15, 120 mg, n=3, range): 0.8-2.4
- AUC0-24 [8]: 26000 ng·h/mL and 3740 ng·h/mL
- Cmax [8]: 1610 ng/mL and 299 ng/mL
- RAUCtau [8]: 2.7 and 0.9
- RCmax [8]: 2.2 and 1.0
- T1/2 [8]: 29.0 h and 10.3 h
- Tmax [8]: (2, 2) hr
- AUC0-24 [9]: 41300 ng·h/mL
- Cmax [9]: 2930 ng/mL
- RAUCtau [9]: 8.0 and 1.55
- RCmax [9]: 10.5 and 1.57
- T1/2 [9]: 11.7 h
- Tmax [9]: 1 h
- RAUCtau (Day 15, 400 bid mg, n=1): 3.76
- RCmax (Day 15, 400 bid mg, n=1): 2.53
- accumulation (QD administration): ~2 fold
- variability of pharmacokinetic parameters (human subjects): Moderate to high inter-and intra-subject variability
- dose dependence of Cmax and AUC (human subjects): Dose-dependent Cmax and AUC
- dose dependence of Cmax and AUC [10]: generally dose-dependent Cmax and AUC
- accumulation in AUC at steady state (human subjects, oral tablets): approximately 2 fold
- t1/2 (rate of elimination) (human subjects, oral tablets): Moderate rate of elimination (t1/2 10-25 hours)
- variability of pharmacokinetic parameters [10]: moderate inter-subject variability
- AUC(0-t) (human, plasma, oral, 10 mg, Day 1, 10 mg, n=1, read-out: AUC0-24): 622 ng·h/mL
- Cmax (human, plasma, oral, 10 mg, Day 1, 10 mg, n=1, read-out: Cmax): 58 ng/mL
- half-life (human, plasma, oral, 10 mg, Day 1, 10 mg, n=1): 16.1 h
- Tmax (human, plasma, oral, 10 mg, Day 1, 10 mg, n=1, read-out: Tmax): 4 h
- AUC(0-t) (human, plasma, oral, 10 mg, Day 15, 10 mg, n=1, read-out: AUC0-24): 912 ng·h/mL
- Cmax (human, plasma, oral, 10 mg, Day 15, 10 mg, n=1, read-out: Cmax): 74 ng/mL
- Tmax (human, plasma, oral, 10 mg, Day 15, 10 mg, n=1, read-out: Tmax): 4 h
- AUC(0-t) (human, plasma, oral, 10 mg, steady state, 10 QD mg, n=1, cancer patients, read-out: AUC0-24h): 912 ng·h/mL
- Cmax (human, plasma, oral, 10 mg, steady state, 10 QD mg, n=1, cancer patients, read-out: Cmax): 74 ng/mL
- Tmax (human, plasma, oral, 10 mg, steady state, 10 QD mg, n=1, cancer patients, read-out: Tmax): 4 h
- AUC(0-t) (human, plasma, oral, 20 mg, Day 1, 20 mg, n=1, read-out: AUC0-24): 1480 ng·h/mL
- Cmax (human, plasma, oral, 20 mg, Day 1, 20 mg, n=1, read-out: Cmax): 101 ng/mL
- half-life (human, plasma, oral, 20 mg, Day 1, 20 mg, n=1): 13.7 h
- Tmax (human, plasma, oral, 20 mg, Day 1, 20 mg, n=1, read-out: Tmax): 8 h
- AUC(0-t) (human, plasma, oral, 20 mg, Day 15, 20 mg, n=1, read-out: AUC0-24): 3160 ng·h/mL
- Cmax (human, plasma, oral, 20 mg, Day 15, 20 mg, n=1, read-out: Cmax): 149 ng/mL
- half-life (human, plasma, oral, 20 mg, Day 15, 20 mg, n=1): 127 h
- Tmax (human, plasma, oral, 20 mg, Day 15, 20 mg, n=1, read-out: Tmax): 8 h
- AUC(0-t) (human, plasma, oral, 20 mg, steady state, 20 QD mg, n=1, cancer patients, read-out: AUC0-24h): 3160 ng·h/mL
- Cmax (human, plasma, oral, 20 mg, steady state, 20 QD mg, n=1, cancer patients, read-out: Cmax): 149 ng/mL
- Tmax (human, plasma, oral, 20 mg, steady state, 20 QD mg, n=1, cancer patients, read-out: Tmax): 8 h
- half-life (human, plasma, oral, 40 mg, Day 1, 40 mg, individual subjects): 18.2 h
- AUC(0-t) (human, plasma, oral, 40 mg, Day 1, 40 mg, n=2, mean, read-out: AUC0-24): 2670 ng·h/mL
- Cmax (human, plasma, oral, 40 mg, Day 1, 40 mg, n=2, mean, read-out: Cmax): 192 ng/mL
- half-life (human, plasma, oral, 40 mg, Day 1, 40 mg, n=2, mean): 17.9 h
- Tmax (human, plasma, oral, 40 mg, Day 1, 40 mg, n=2, mean, read-out: Tmax): 5 h
- Tmax (human, plasma, oral, 40 mg, Day 15, 40 mg, individual subjects, read-out: Tmax): 4 h
- AUC(0-t) (human, plasma, oral, 40 mg, Day 15, 40 mg, n=2, mean, read-out: AUC0-24): 5890 ng·h/mL
